US4481192A, “Acid-protease inhibiting peptide derivatives” (SANOFI, priority 1982, dated 1984)
Like-named read-outs stand apart in the source and are kept apart here. Non-standard residues stand in square brackets, D forms with d. Residues, ends and D or L forms follow the SMILES beside them. *: point of attachment. Benzenesulfonyl = O=S(=O)(c1ccccc1)*; Sta = CC(C)C[C@H](N)[C@@H](O)CC(=O)O; Hydrocinnamoyl = O=C(CCc1ccccc1)*; Isovaleryl = CC(C)CC(=O)*; Cbz = O=C(OCc1ccccc1)*; Boc = CC(C)(C)OC(=O)*

Legend:
Assay type in all cases: biochemical
porcine pepsin = porcine pepsin (Sus scrofa, UniProt P00791); assay: Inhibition of porcine pepsin; settings: pH 2, substrate bovine haemoglobin, 37° C.
Chain of porcine pepsin (P00791 60-385): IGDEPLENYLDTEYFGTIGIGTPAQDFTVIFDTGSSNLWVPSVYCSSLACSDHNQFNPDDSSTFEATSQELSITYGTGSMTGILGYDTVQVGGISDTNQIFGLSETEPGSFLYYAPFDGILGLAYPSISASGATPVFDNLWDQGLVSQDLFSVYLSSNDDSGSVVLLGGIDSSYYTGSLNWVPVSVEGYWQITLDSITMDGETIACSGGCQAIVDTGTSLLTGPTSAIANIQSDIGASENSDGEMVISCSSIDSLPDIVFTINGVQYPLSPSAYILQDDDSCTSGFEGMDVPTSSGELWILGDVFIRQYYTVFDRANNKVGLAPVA
Method: The method used is that of TAKAAKI AOYAGI (J. Antibiotics, 24, pages 687-694, 1971). The substrate used is bovine haemoglobin and the enzyme is porcine pepsin.
0.5% strength haemoglobin is hydrolysed with pepsin (1 mcg/ml) at 37° C. in 0.02M KCl-HCl buffer at pH 2.
Preincubation takes place for 3 minutes, followed by incubation for 25 minutes. After precipitation of the proteins with 1.7M perchloric acid, the optical density of the supernatant is determined on a spectrophotometer at 280 nm.
The results are expressed as the percentage inhibition of the maximum optical density obtained in the absence of inhibitor. They are also expressed as an IC50.
(§1) A 10^-3 M stock solution of the peptide is made up in a mixture containing equal volumes of a solution A (19 ml of methanol+1 ml of acetic acid) and a solution B (4 ml of methanol+2 ml of sodium hydroxide solution).
(§2) The subsequent dilutions of the peptide are then prepared in the appropriate buffer in accordance with the procedures described above.

[1] = target: T1, human plasma renin activity (Homo sapiens, UniProt P00797); assay: Inhibition of the human plasma renin activity (P.R.A.); settings: 37° C., pool of human plasma
T1 construct: the human plasma contain and the substrate: angiotensinogen, and the enzyme: renin; from tissue; host or cells: pool of human plasma
T1 sequence (P00797 67-406): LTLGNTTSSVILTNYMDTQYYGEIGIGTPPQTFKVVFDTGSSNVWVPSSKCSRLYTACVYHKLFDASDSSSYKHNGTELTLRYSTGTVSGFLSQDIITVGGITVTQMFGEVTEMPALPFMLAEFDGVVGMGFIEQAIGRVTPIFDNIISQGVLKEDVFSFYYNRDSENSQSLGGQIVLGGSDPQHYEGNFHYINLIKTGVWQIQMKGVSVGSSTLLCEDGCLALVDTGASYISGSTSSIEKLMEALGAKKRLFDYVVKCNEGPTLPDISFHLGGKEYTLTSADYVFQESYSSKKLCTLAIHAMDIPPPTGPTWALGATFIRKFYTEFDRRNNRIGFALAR
Method: The angiotensin I released during the reaction (the human plasma contain and the substrate: angiotensinogen, and the enzyme: renin) is measured by radioimmunological determination using a kit.
Of course, an inhibitor of the enzyme for conversion of the PMSF (phenylmethylsulphonyl fluoride) is added to the incubation medium.
Two types of experiments were carried out:
one at pH 6, which is the optimum pH for the enzyme reaction with human renin (maleate buffer, incubation: 30 minutes), and
the other at pH 7.4, which is the physiological pH (phosphate buffer, incubation: 60 minutes).
as §1, §2

cathepsin D = target: T2, cathepsin D (Bos taurus, UniProt P80209); assay: Enzyme inhibition of cathepsin D; settings: pH 3.2, substrate bovine haemoglobin, 37° C., incubation 30 minutes
T2 construct: purchased SIGMA C 3138
T2 sequence (P80209 45-390): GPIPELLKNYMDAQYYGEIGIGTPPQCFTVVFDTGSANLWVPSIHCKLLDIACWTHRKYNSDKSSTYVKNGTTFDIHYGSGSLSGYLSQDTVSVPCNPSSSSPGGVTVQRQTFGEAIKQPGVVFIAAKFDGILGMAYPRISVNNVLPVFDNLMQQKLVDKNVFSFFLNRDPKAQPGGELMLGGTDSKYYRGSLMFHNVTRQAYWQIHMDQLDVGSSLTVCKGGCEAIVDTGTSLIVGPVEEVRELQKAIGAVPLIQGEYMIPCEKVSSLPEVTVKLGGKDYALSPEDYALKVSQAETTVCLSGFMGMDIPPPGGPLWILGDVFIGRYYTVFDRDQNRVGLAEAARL
Method: The method used is very similar to the pepsin method (T. AOYAGI, 1971).
The substrate used is bovine haemoglobin and the enzyme is cathepsin D of bovine origin (SIGMA, No.C 3138, batch 26 C-8100).
0.5% strength haemoglobin is hydrolysed with cathepsin D (200 μg/ml) at 37° C. in citrate-phosphate buffer at pH 3.2.
The substrate, the inhibitor and the enzyme are incubated for 30 minutes.
After precipitation of the proteins with 1.7M perchloric acid, the optical density of the supernatant is determined on a spectrophotometer at 280 nm.
The results are expressed as the percentage reduction in the maximum optical density obtained in the absence of inhibitor.
as §1, §2

[2] = pH 6, maleate buffer, incubation 30 minutes, read-out: INHIBITION OF HUMAN P.R.A. (IC50) pH 6
[3] = pH 7.4, phosphate buffer, incubation 60 minutes, read-out: INHIBITION OF HUMAN P.R.A. (IC50) pH 7.4

Structure (SMILES)	IC50 (porcine pepsin) [nM]	IC50 [1, 2] [nM]	IC50 [1, 3] [nM]	IC50 (cathepsin D) [nM]
COC(=O)C[C@H](O)[C@H](CC(C)C)NC(=O)[C@H](C)NC(=O)C[C@H](O)[C@H](CC(C)C)NC(=O)[C@H](Cc1ccccc1)NC(=O)[C@H](Cc1ccccc1)NC(=O)OC(C)(C)C [SR 41331, Boc--Phe--Phe--Sta--Ala--Sta--OMe] (Boc-FF[Sta]A[Sta]-OMe)	14	3.5	190	180
COC(=O)C[C@H](O)[C@H](CC(C)C)NC(=O)[C@H](C)NC(=O)C[C@H](O)[C@H](CC(C)C)NC(=O)[C@@H](NC(=O)[C@H](Cc1ccccc1)NC(=O)OCc1ccccc1)C(C)C [SR 41405, Z--Phe--Val--Sta--Ala--Sta--OMe] (Cbz-FV[Sta]A[Sta]-OMe)	65	–	–	95
COC(=O)C[C@H](O)[C@H](CC(C)C)NC(=O)[C@H](C)NC(=O)C[C@H](O)[C@H](CC(C)C)NC(=O)[C@@H](NC(=O)[C@H](Cc1c[nH]c2ccccc12)NC(=O)OCc1ccccc1)C(C)C [SR 41485, Z--Trp--Val--Sta--Ala--Sta--OMe] (Cbz-WV[Sta]A[Sta]-OMe)	29	6.75	150	75
COC(=O)C[C@H](O)[C@H](CC(C)C)NC(=O)[C@H](C)NC(=O)C[C@H](O)[C@H](CC(C)C)NC(=O)[C@H](Cc1c[nH]c2ccccc12)NC(=O)[C@H](Cc1c[nH]c2ccccc12)NC(=O)OC(C)(C)C [SR 41376, Boc--Trp--Trp--Sta--Ala--Sta--OMe] (Boc-WW[Sta]A[Sta]-OMe)	120	–	–	130
COC(=O)C[C@H](O)[C@H](CC(C)C)NC(=O)[C@H](C)NC(=O)C[C@H](O)[C@H](CC(C)C)NC(=O)[C@H](Cc1c[nH]cn1)NC(=O)[C@H](Cc1c[nH]c2ccccc12)NC(=O)OC(C)(C)C [SR 41619, Boc--Trp--His--Sta--Ala--Sta--OMe] (Boc-WH[Sta]A[Sta]-OMe)	–	–	–	750
COC(=O)C[C@H](O)[C@H](CC(C)C)NC(=O)[C@H](C)NC(=O)C[C@H](O)[C@H](CC(C)C)NC(=O)[C@H](Cc1c[nH]cn1)NC(=O)[C@H](Cc1ccccc1)NC(=O)OC(C)(C)C [SR 41395, Boc--Phe--His--Sta--Ala--Sta--OMe] (Boc-FH[Sta]A[Sta]-OMe)	1300	–	–	870
CC(C)C[C@H](NC(=O)[C@H](C)NC(=O)C[C@H](O)[C@H](CC(C)C)NC(=O)[C@H](Cc1c[nH]cn1)NC(=O)[C@H](Cc1ccccc1)NC(=O)OC(C)(C)C)[C@@H](O)CC(=O)O [SR 41492, Boc--Phe--His--Sta--Ala--Sta--OH] (Boc-FH[Sta]A[Sta]-OH)	550	–	45	700
COC(=O)C[C@H](O)[C@H](CC(C)C)NC(=O)[C@H](C)NC(=O)C[C@H](O)[C@H](CC(C)C)NC(=O)[C@H](Cc1ccccc1)NC(=O)[C@H](Cc1ccccc1)NC(=O)CCc1ccccc1 [SR 41768, C6 H5 CH2 CH2 CO--Phe--Phe--Sta--Ala--Sta--OMe] (Hydrocinnamoyl-FF[Sta]A[Sta]-OMe)	42	50	1000	–
COC(=O)C[C@H](O)[C@H](CC(C)C)NC(=O)[C@H](C)NC(=O)C[C@H](O)[C@H](CC(C)C)NC(=O)[C@@H](NC(=O)[C@H](Cc1ccc(O)cc1)NC(=O)OCc1ccccc1)C(C)C [SR 41476, Z--Tyr--Val--Sta--Ala--Sta--OMe] (Cbz-YV[Sta]A[Sta]-OMe)	24	170	2200	–
COC(=O)C[C@H](O)[C@H](CC(C)C)NC(=O)[C@H](C)NC(=O)C[C@H](O)[C@H](CC(C)C)NC(=O)CNC(=O)[C@H](Cc1ccccc1)NC(=O)CC(C)C [SR 42261, iVa--Phe--Gly--Sta--Ala--Sta--OMe] (Isovaleryl-FG[Sta]A[Sta]-OMe)	750	170	4700	–
CC(C)C[C@H](NC(=O)[C@H](C)NC(=O)C[C@H](O)[C@H](CC(C)C)NC(=O)[C@H](Cc1ccccc1)NC(=O)[C@H](Cc1ccccc1)NC(=O)OCc1ccccc1)[C@@H](O)CC(=O)O [SR 41225, Z--Phe--Phe--Sta--Ala--Sta--OH] (Cbz-FF[Sta]A[Sta]-OH)	90	70	1000	–
COC(=O)C[C@H](O)[C@H](CC(C)C)NC(=O)[C@H](C)NC(=O)C[C@H](O)[C@H](CC(C)C)NC(=O)[C@H](Cc1ccccc1)NC(=O)[C@H](Cc1ccccc1)NS(=O)(=O)c1ccccc1 [SR 41938, C6 H5 SO2 --Phe--Phe--Sta--Ala--Sta--OCH3] (Benzenesulfonyl-FF[Sta]A[Sta]-OMe)	63	1.6	440	–
